“And” between values parts separate entries of the source, which are not always exact repeats. Equal values may be shown once.
Row | Structure (SMILES) | melting point
1 | CC(CCc1ccccc1)NCC(O)c1ccc(O)c(C(N)=O)c1 (configuration not stated) [labetalol] | 188 °C
2 | O=C(O)c1nn(Cc2ccc(Cl)cc2Cl)c2ccccc12 [lonidamine] | 207 °C
3 | O=C1Nc2ccc(Cl)cc2C(c2ccccc2Cl)=NC1O (configuration not stated) [lorazepam] | 167 °C
4 | CC[C@H](C)C(=O)O[C@H]1C[C@@H](C)C=C2C=C[C@H](C)[C@H](CC[C@@H]3C[C@@H](O)CC(=O)O3)[C@H]21 [lovastatin] | 174 °C
5 | OC[C@@H]1CCCN2CCCC[C@H]12 [lupinine] | 64 °C
6 | O=[N+]([O-])c1cccc(C=NO)c1 [m-Nitrobenzaldehyde oxime] | 120 °C
7 | CC(=O)c1cccc(N)c1 [m-aminoacetophenone] | 97 °C
8 | Nc1cccc(O)c1 [m-aminophenol] | 125 °C
9 | COc1cccc(N)c1 [m-anisidine] | 0 °C
10 | O=C(O)c1cccc(Br)c1 [m-bromobenzoic acid] | 157 °C
11 | N#CCc1cccc(Br)c1 [m-bromophenylacetonitrile] | 28 °C
12 | N#CCc1cccc(C#N)c1 [m-cyano_phenylacetonitrile] | 87 °C
13 | CC(C)c1cccc(C(C)C)c1 [m-diisopropylbenzene] | -63 °C
14 | O=Cc1cccc(I)c1 [m-iodobenzaldehyde] | 58 °C
15 | Nc1cccc([N+](=O)[O-])c1 [m-nitroaniline] | 114 °C
16 | Cc1cccc(C(=O)O)c1 [m-toluic_acid] | 110 °C
17 | Cc1cccc(N)c1 [m-toluidine] | -30 °C
18 | Cc1cccc(C(=O)CC#N)c1 [m-toluoylacetonitrile] | 73 °C
19 | C=Cc1cccc(C(=O)O)c1 [m-vinylbenzoic_acid] | 96 °C
20 | O=C(O)C=CC(=O)O [maleic acid] | 134 °C
21 | OC[C@@H](O)[C@@H](O)[C@H](O)[C@H](O)CO [mannitol] | 168 °C
22 | CNCCCC12CCC(c3ccccc31)c1ccccc12 [maprotiline] | 92 °C

Row | Structure (SMILES) | melting point
23 | CCc1c(C)[nH]c2ccc(N(C)C)cc12 [medmain] | 100 °C
24 | Cc1cnc(s1)NC(=O)C\3=C(/O)c2ccccc2S(=O)(=O)N/3C [meloxicam] | 254 °C
25 | Cc1cc(CCN2CCN(c3cccc(Cl)c3)CC2)n[nH]1 [mepiprazole] | 106 °C
26 | CCCC(C)(COC(N)=O)COC(N)=O [meprobamate] [listing 1 of 2 here] | 104 °C
27 | CCCC(C)(COC(N)=O)COC(N)=O [meprobamate] [listing 2 of 2 here] | 105 °C
28 | CC(=O)C=C(C)C [mesityl oxide] | -59 °C
29 | Cc1cc(C)c(CC(=O)O)c(C)c1 [mesitylacetic acid] | 169 °C
30 | Cc1cc(C)c(CC#N)c(C)c1 [mesitylacetonitrile] | 79 °C
31 | C[C@H](O)[C@@H](C)O [meso-2,3-butanediol] | 34.5 °C and 33 °C
32 | O[C@H](c1ccccc1)[C@@H](O)c1ccccc1 [meso-hydrobenzoin] | 135 °C
33 | CC(C)NCC(O)c1cc(O)cc(O)c1 (configuration not stated) [metaproterenol] | 100 °C
34 | C=C(C)C(=O)O [methacrylic acid] | 16 °C
35 | C=C(C)CC1(CC)C(=O)NC(=S)NC1=O [methallatal] | 160 °C
36 | CS(N)(=O)=O [methanesulfonamide] | 90 °C
37 | CN1CCC(CN2c3ccccc3Sc3ccccc32)C1 (configuration not stated) [methdilazine] | 87 °C
38 | CN1C(CCl)Nc2cc(Cl)c(S(N)(=O)=O)cc2S1(=O)=O (configuration not stated) [methyclothiazide] | 225 °C
39 | COC(=O)n1c(C)c(C)c2ccccc21 [methyl 2,3-dimethyl-1H-indole-1-carboxylate] | 50 °C
40 | CCC1=Nc2ccccc2C1(C)C(=O)OC (configuration not stated) [methyl 2-ethyl-3-methyl-3H-indole-3-carboxylate] | 72 °C
41 | COC(=O)c1ccc(OC)cc1O [methyl 2-hydroxy-4-methoxybenzoate] | 48 °C
42 | COC(=O)c1ccccc1[N+](=O)[O-] [methyl 2-nitrobenzoate] | -13 °C
43 | COC(=O)c1ccc(-c2cccc([N+](=O)[O-])c2)cc1 [methyl 3'-nitrobiphenyl-4-carboxylate] | 143 °C
44 | COC(=O)C1=Nc2ccccc2C1(C)C [methyl 3,3-dimethyl-3H-indole-2-carboxylate] | 75 °C

Row | Structure (SMILES) | melting point
45 | COC(=O)c1ccc(C)c(C)c1 [methyl 3,4-dimethylbenzoate] | 36 °C
46 | COC(=O)c1cccc(N)c1 [methyl 3-aminobenzoate] | 51 °C
47 | COC(=O)c1ccc(OC)c(C#N)c1 [methyl 3-cyano-4-methoxybenzoate] | 122 °C
48 | COC(=O)c1ccc(C#N)cc1 [methyl 4-cyanobenzoate] | 67 °C
49 | COC(=O)c1ccc(F)cc1O [methyl 4-fluorosalicylate] | 39 °C
50 | COC(=O)c1ccc(C=O)cc1 [methyl 4-formylbenzoate] | 61 °C
51 | COC(=O)c1ccc(I)c([N+](=O)[O-])c1 [methyl 4-iodo-3-nitrobenzoate] | 103 °C
52 | COC(=O)c1ccc(I)cc1 [methyl 4-iodobenzoate] | 115 °C
53 | COC(=O)c1ccc([N+](=O)[O-])cc1 [methyl 4-nitrobenzoate] | 96 °C
54 | COC(=O)CCC(C)C1CCC2C3C(=O)C(Br)C4CCCCC4(C)C3CCC12C (configuration not stated) [methyl 6-bromo-7-oxocholan-24-oate] | 124 °C
55 | COC(=O)CCC(C)C1CCC2C3C(OC(C)=O)C(Br)C4CCCCC4(C)C3CCC12C (configuration not stated) [methyl 7-(acetyloxy)-6-bromocholan-24-oate] | 159 °C
56 | COC(=O)[C@H](C)O [methyl (S)-lactate] | -44 °C
57 | COC(C)=O [methyl acetate] | -98 °C
58 | CO[C@H]1O[C@H](CO)[C@@H](O)[C@H](O)[C@H]1O [methyl alpha-d-glucopyranoside] | 169 °C
59 | COC(=O)c1ccccc1N [methyl anthranilate] | 24 °C
60 | CCCCCCCCCCCCCCCCCCCC(=O)OC [methyl eicosanoate] | 48 °C
61 | CCCCCC(=O)OC [methyl hexanoate] | -71 °C
62 | COC(=O)c1cc2ccccc2cn1 [methyl isoquinoline-3-carboxylate] | 86 °C
63 | CCCCCCCCCCCCCCCC(=O)OC [methyl palmitate] | 31 °C
64 | COC(=O)c1ccc2nccnc2c1 [methyl quinoxaline-6-carboxylate] | 98 °C
65 | COC(=O)c1ccccc1O [methyl salicylate] | -9 °C
66 | CCCCCCCCCCCCCCCCCC(=O)OC [methyl stearate] | 40 °C

Row | Structure (SMILES) | melting point
67 | COC(=O)c1ccccc1OC(C)=O [methyl_2-acetoxybenzoate] | 52 °C
68 | COC(=O)c1cc(OC)cc(OC)c1 [methyl_3,5-dimethoxybenzoate] | 43 °C
69 | COC(=O)c1ccc(C(C)=O)cc1 [methyl_4-acetylbenzoate] | 95 °C
70 | COC(=O)c1ccc(Cl)cc1 [methyl_4-chlorobenzoate] | 44 °C
71 | COC(=O)c1ccc(C#N)cc1 [methyl_4-cyanobenzoate] | 62 °C
72 | COS(=O)(=O)c1ccc(C)cc1 [methyl_p-toluenesulfonate] | 79 °C
73 | CC1CCCCC1 [methylcyclohexane] | -126 °C
74 | CC1CCCC1 [methylcyclopentane] | -142 °C
75 | CCc1cccc(C)c1N(C(=O)CCl)C(C)COC (configuration not stated) [metolachlor] | 25 °C
76 | COc1ccc2c(c1)c1c3n2CCN(C)C3=NCC1 [metralindole] | 164 °C
77 | Cc1ncc([N+](=O)[O-])n1CCO [metronidazole] | 160 °C
78 | Nc1cc(N2CCCCC2)nc(N)[n+]1[O-] [minoxidil] | 248 °C
79 | CCc1c(C)[nH]c2c1C(=O)C(CN1CCOCC1)CC2 (configuration not stated) [molindone] | 180 °C
80 | CCCCCCCCCCCCOP(=O)(O)O [mono-n-dodecyl phosphate] | 42 °C
81 | CN(C)C(=O)Nc1ccc(Cl)cc1 [monuron] | 172 °C and 174 °C
82 | CCOC(=O)Nc1ccc2c(c1)N(C(=O)CCN1CCOCC1)c1ccccc1S2 [moricizine] | 156 °C
83 | CCc1cc2cc(OC)c(OC)cc2c(Cc2ccccc2)n1 [moxaverine] | 78 °C
84 | CC(C)(C)NCC(O)COc1cccc2c1C[C@H](O)[C@H](O)C2 (some centres not stated) [nadolol] | 125 °C
85 | c1ccc2cc3cc4ccccc4cc3cc2c1 [naphthacene] | 357 °C
86 | c1ccc2ccccc2c1 [naphthalene] | 83 °C and 80.2 °C
87 | NC(=O)c1cccnc1 [nicotinamide] | 130 °C
88 | O=[N+]([O-])c1ccccc1 [nitrobenzene] [listing 1 of 2 here] | 6 °C

Row | Structure (SMILES) | melting point
89 | O=[N+]([O-])c1ccccc1 [nitrobenzene] [listing 2 of 2 here] | 6 °C
90 | O=[N+]([O-])c1ccccc1O [nitrophenol] | 45 °C
91 | CCCCCCCCCC#N [nonyl_cyanide] | -15 °C
92 | C[C@H](Cc1ccc(O)c(O)c1)[C@@H](C)Cc1ccc(O)c(O)c1 [nordihydroguaiaretic acid] | 186 °C
93 | CCn1cc(C(=O)O)c(=O)c2cc(F)c(N3CCNCC3)cc21 [norfloxacin] | 220 °C
94 | Cc1ccccc1N [o-Toluidine] | -16 °C
95 | CC(=O)c1ccccc1N [o-aminoacetophenone] | 20 °C
96 | NC(=O)c1ccccc1N [o-aminobenzamide] | 113 °C
97 | COc1ccccc1C=O [o-anisaldehyde] | 38 °C
98 | OCc1ccccc1Br [o-bromobenzyl alcohol] | 81 °C
99 | NC(=O)c1ccccc1Cl [o-chlorobenzamide] | 143 °C
100 | Clc1ccccc1I [o-chloroiodobenzene] | 1 °C
101 | Oc1ccccc1Cl [o-chlorophenol] | 8 °C
102 | N#Cc1ccccc1C(N)=O [o-cyanobenzamide] | 172 °C
103 | N#CCc1ccccc1O [o-hydroxy_phenylacetonitrile] | 122 °C
104 | Nc1ccccc1[N+](=O)[O-] [o-nitroaniline] | 73 °C
105 | O=Cc1ccccc1[N+](=O)[O-] [o-nitrobenzaldehyde] | 46 °C
106 | O=[N+]([O-])c1ccccc1O [o-nitrophenol] | 45 °C
107 | O=C(O)c1ccccc1-c1ccccc1 [o-phenylbenzoic_acid] | 115 °C

Reference: the Bradley open melting point set (2014)
